In US5804553A, “Prophenins - antibiotic peptides” (University of California, priority 1994, dated 1998):
Where no end group is shown, it is not given here.

Assays:
C. albicans, strain 820 = assay: radial diffusion assay in agarose gels; assay type: cell-based; details: for inhibitory activity (FIG. 4c): at reasonable concentrations; for minimal microbicidal concentration: Table 2
Description: (§1) Aliquots (66 μl) of each fraction were dried by vacuum centrifugation, and resuspended in approximately 6.6 μl of 0.01% acetic acid. Five μl samples of this concentrate were tested for antimicrobial activity against E. coli ML-35, L. monocytogenes, Strain EGD and C. albicans, strain 820 by radial diffusion and gel overlay techniques (Lehrer, R. I. et al. J Immunol Meth (1991) 137:167-173). Active fractions were further examined by acid-urea PAGE and SDS-PAGE. Prophenins emerged from the P10 column in fractions 38-43 (39.6 ml total volume), which contained a total of 18 mg protein by BCA analysis.
(§2) The radial diffusion assay in agarose gels as described above was also used to test the activity of the purified prophenins. Samples of 5 μL each were added to 3 mm wells in thin gels composed of 10 mM sodium phosphate, 30 mg/ml trypticase soy broth powder in 1% agarose and containing approximately 4×10^5 CFU/ml of mid-log phase organisms. After allowing 3 hours for the samples to diffuse into the underlayer gel, a nutrient-rich overlay gel was poured and the plates were incubated for 24 hours at 37° C. to allow surviving organisms to form microcolonies. The diameters of the clear zones were measured and expressed in "units" (10 units=1 mm) as. described previously.

[1] = test system: L. monocytogenes, Strain EGD; assay: radial diffusion assay in agarose gels; assay type: cell-based; details: for minimal microbicidal concentration: Table 2
Description: as §1, §2

E. coli ML-35 = assay: radial diffusion assay in agarose gels; assay type: cell-based; details: for minimal microbicidal concentration: E. coli, Table 2; for inhibitory activity (FIG. 4a): E. coli ML-35
Description: as §1, §2

[2] = test system: lipid polysaccharide (LPS) of the Gram-negative bacterium E. coli strain 0.55B5; assay: Limulus amebocyte lysate (LAL) test for endotoxin binding; assay type: biochemical; design: key to LAL gel formation: ++ signifies a solid gel (no inhibition); + indicates increased viscosity without solid gel formation (partial inhibition); 0 indicates that gelation was absent (complete inhibition); details: for concentration giving complete inhibition of LAL gelation / LAL gel formation: LPS 0.05 endotoxin unit/ml; for LAL gel formation: Table 3; for concentration giving complete inhibition of LAL gelation, molar: converted from μg/ml
Description: The prophenins of the invention were tested for their ability to bind the lipid polysaccharide (LPS) of the Gram-negative bacterium E. coli strain 0.55B5. The assay was the Limulus amebocyte lysate (LAL) test for endotoxins conducted in the presence and absence of the test compounds. The test was conducted using the procedure described in Sigma Technical Bulletin No. 210 as revised in December 1992 and published by Sigma Chemical Company, St. Louis, Mo.
The LAL test is based on the ability of LPS to effect gelation in the commercial reagent E-TOXATE ™ which is prepared from the lysate of circulating amebocytes of the Horseshoe Crab Limulus polyphemus. As described in the technical bulletin, when exposed to minute quantities of LPS, the lysate increases in opacity as well as viscosity and may gel or clot depending on the concentration of endotoxin. The technical bulletin goes on to speculate that the mechanism appears analogous to the clotting of mammalian blood and involves the steps of activation of a trypsin-like preclotting enzymes by the LPS in the presence of calcium ion, followed by enzymic modifications of a "coagulogen" by proteolysis to produce a clottable protein. These steps are believed tied to the biologically active or "pyrogenic" portion of the molecule. It has been shown previously that detoxified LPS (or endotoxin) gives a negative LAL test.
Polymyxin B is a cyclic 1.2 kD acylated […] obtained from Bacillus polymyxa. Polymyxin B was used as a positive control since it is known to inhibit LPS-induced Limulus hemocyte lysate clotting.
In the assay, the amounts of prophenin-1 and polymyxin B (78% free polymyxin, Sigma) were preincubated in a final volume of 0.2 ml and the test mixtures contained LPS at a final concentration of 0.05 endotoxin unit/ml and E-TOXATE™ at the same concentration. The test compounds were incubated together with the LPS for 15 minutes before the E-TOXATE™ was added to a final volume (after E-TOXATE™ addition) of 0.2 ml. The tubes were then incubated for 60 minutes at 37° C. and examined for the formation of a gel.

In the case of “HNP-1: human defensin (HNP-1), used as control”, the “inhibitory activity (FIG. 4c)” value (C. albicans, strain 820) is reported as “substantially noninhibitory”.

In the case of “HNP-2: control peptide as headed in Table 2; the text names human defensin HNP-1 (CYCRIPACIAGERRYGTCIYQGRLWAFCC; ends and bridges not checked; cysteine pairing not given here; UniProt P59665 66-94, looked up)”, the minimal microbicidal concentration [1] is reported as 12.0 µg/mL, the minimal microbicidal concentration (E. coli ML-35) is reported as 80.0 µg/mL and the minimal microbicidal concentration (C. albicans, strain 820) is reported as over 150 µg/mL.

For “PG-3: protegrin-3 (PG3), used as control (RGGGLCYCRRRFCVCVGR; ends and bridges not checked; cysteine pairing not given here; UniProt P32196 131-148, looked up)”, the minimal microbicidal concentration [1] was 9.0 µg/mL, the “inhibitory activity (FIG. 4a)” value (E. coli ML-35) was “more inhibitory than HNP-1” and the minimal microbicidal concentration (E. coli ML-35) was 8.6 µg/mL. The minimal microbicidal concentration (C. albicans, strain 820) was 6.9 µg/mL and the “inhibitory activity (FIG. 4c)” value (C. albicans, strain 820) was “successful antifungals”.

With Polymyxin B the “concentration giving complete inhibition of LAL gelation” value [2] was 5 µg/mL, the LAL gel formation ([2]; peptide 0.16 μg/ml) was “++” and the LAL gel formation ([2]; peptide 0.31 μg/ml) was “++”. The LAL gel formation ([2]; peptide 0.63 μg/ml) was “++”, the LAL gel formation ([2]; peptide 1.25 μg/ml) was “++” and the LAL gel formation ([2]; peptide 2.5 μg/ml) was “+”. The LAL gel formation ([2]; peptide 5.0 μg/ml) was 0, the LAL gel formation ([2]; peptide 10.0 μg/ml) was 0 and the “concentration giving complete inhibition of LAL gelation, molar” value [2] was “≈ 4.2 μM”.

B1: Prophenin-1: 79-residue proline-rich antimicrobial peptide purified from porcine leukocytes; sequence SEQ ID NO:1 (b87-b94, FIG. 3) (peptide)
chain: AFPPPNVPGPRFPPPNFPGPRFPPPNFPGPRFPPPNFPGPRFPPPNFPGPPFPPPIFPGPWFPPPPPFRPPPFGPPRFP
In the case of B1, the “concentrations at which some activity was shown (FIG. 4b)” value [1] is reported as “above 100 μg/ml”, the minimal microbicidal concentration [1] is reported as 122.2 µg/mL and the “inhibitory activity (FIG. 4b)” value ([1]; versus the other three antibiotic peptides) is reported as “substantially less inhibitory”. For the same molecule, the “inhibitory activity (FIG. 4a)” value (E. coli ML-35) was “comparable in inhibitory activity to PG3 and NP1”, the minimal microbicidal concentration (E. coli ML-35) was 15.2 µg/mL and the “specificity for Gram-negative bacteria” value (E. coli ML-35; from Table 2, E. coli versus L. monocytogenes and C. albicans) was “highly specific for Gram-negative bacteria”. The minimal microbicidal concentration (C. albicans, strain 820) was over 150 µg/mL, the “inhibitory activity (FIG. 4c)” value (C. albicans, strain 820) was “substantially noninhibitory” and the “concentration giving complete inhibition of LAL gelation” value [2] was 0.625 µg/mL. For the same molecule, the LAL gel formation ([2]; peptide 0.16 μg/ml) was “++”, the LAL gel formation ([2]; peptide 0.31 μg/ml) was “++” and the LAL gel formation ([2]; peptide 0.63 μg/ml) was 0. It also gave an LAL gel formation ([2]; peptide 1.25 μg/ml) of 0, an LAL gel formation ([2]; peptide 2.5 μg/ml) of 0 and an LAL gel formation ([2]; peptide 5.0 μg/ml) of 0. The “concentration giving complete inhibition of LAL gelation, molar” value [2] was “≈ 72 nM” and the “effective concentration in inhibiting LPS” value ([2]; intact molecule) was 35 to 70 nM.
